Source: paper PMC8921065, “Combination of terbium-161 with somatostatin receptor antagonists—a potential paradigm shift for the treatment of neuroendocrine neoplasms” (European Journal of Nuclear Medicine and Molecular Imaging, 2021)

Experiment: in vivo
Details: mouse, iv, 0.2 nmol/mouse, total radioactivity

Measured: tissue uptake at 24 h

C[C@@H](O)[C@@H]1NC(=O)[C@H](CCCCN)NC(=O)[C@@H](Cc2ccc(NC(N)=O)cc2)NC(=O)[C@H](Cc2ccc(O)cc2)NC(=O)[C@H](NC(=O)[C@H](Cc2ccc(Cl)cc2)NC(=O)CN2CCN(CC(=O)O)CCN(CC(=O)O)CCN(CC(=O)O)CC2)CSSC[C@@H](C(=O)N[C@H](Cc2ccc(O)cc2)C(N)=O)NC1=O [metal not drawn]
≤ 0.1 %ID/g: blood | heart | muscle
